ChEMBL document CHEMBL1153880, “Synthesis and adrenolytic activity of 1-(1H-indol-4-yloxy)-3-{[2-(2-methoxyphenoxy)ethyl]amino}propan-2-ol and its enantiomers. Part 1” (Eur J Med Chem, 2009)

What was measured:
[1] = test system: Rattus norvegicus; assay: Effect on electrocardiogram in anaesthetized Wistar rat assessed as change in P-Q interval at 1 mg/kg, iv after 1 min by electrocardiography; type: functional
[2] = Acute toxicity in iv dosed anaesthetized Wistar rat; type: organism-based; conditions: in vivo
[3] = test system: Rattus norvegicus; assay: Effect on heart rate in anaesthetized Wistar rat assessed as number of beats per minute at 1 mg/kg, iv after 1 min by electrocardiography; type: functional
[4] = test system: Rattus norvegicus; assay: Effect on heart rate in anaesthetized Wistar rat assessed as number of beats per minute at 1 mg/kg, iv after 5 mins by electrocardiography; type: functional
[5] = test system: Rattus norvegicus; assay: Antiarrhythmic activity against adrenaline-induced arrhythmia in iv dosed anaesthetized Wistar rat assessed as inhibition of premature ventricular beats pretreated 60 mins prior to adrenaline challenge; type: functional; conditions: Heart
[6] = Therapeutic index, ratio of LD50 for Wistar rat to antiarrhythmic ED50 for Wistar rat; type: organism-based, Heart; conditions: in vivo, read-out: TI

Row | Structure (SMILES) | Activity [1] [ms] | LD50 [2] [mg/kg] | Activity [3] [min⁻¹] | Activity [4] [min⁻¹] | ED50 [5] [mg/kg] | selectivity ratio [6]
1 | COc1ccccc1OCCNCC(O)COc1cccc2[nH]c3ccccc3c12 (stereo not drawn) [CARVEDILOL] | 50 | 25 | 345.2 | 340.3 | 0.25 | –
2 | CC(C)NCC(O)COc1cccc2[nH]ccc12 (stereo not drawn) [PINDOLOL] | – | 39 | – | – | 1.05 | 37
